Common to all, as to assay type: cell-based, HIV-1
For one experiment, the system named is HIV-IIIb IN T174I DE. Nature of the experiment: Antiviral assay in MT4 cells, HIV-IIIb IN T174I DE virus (from dose escalation passaging). The settings on record: Human immunodeficiency virus 1, IIIB, MT4, 120 h, read-out: T174I DE EC50, MT4 cells, HIV-IIIb IN T174I DE (dose escalation), 5 days, CellTiter-Glo. The gist of the method: (§1)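 Each EC50 is the compound concentration that reduced CellTiter-Glo luminescence by 50% after 5 days of culture of HIV-IIIb-infected MT4 cells. Infection was at 0.004 m.o.i. with 3 h pre-incubation. Testing used 10 concentrations in quadruplicate.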
In general terms: Cellular ATP, detected with luciferase, serves as a proxy for viable cell number.

In another experiment the test system is HIV-IIIb (wildtype). Description: Antiviral assay in MT4 cells, HIV-IIIb wildtype. The settings on record: Human immunodeficiency virus 1, IIIB, MT4, 120 h, read-out: WT EC50. An outline of the steps:
as §1

The next experiment has as its system HIV-IIIb IN T174I BT. Description: Antiviral assay in MT4 cells, HIV-IIIb IN T174I BT virus (from viral breakthrough). As to conditions: Human immunodeficiency virus 1, IIIB, MT4, 120 h, read-out: T174I BT EC50, MT4 cells, HIV-IIIb IN T174I BT (viral breakthrough), 5 days, CellTiter-Glo. The gist of the method:
as §1

As usually defined, the EC50 is the concentration at which the effect is half-maximal. On to `Cc1cc2nc(-c3ccc4c(c3)c(C3CCN(C5COC5)CC3)nn4CC(F)F)sc2c(-c2ccc(Cl)cc2)c1[C@H](OC(C)(C)C)C(=O)O` [Compound 42, (S)-2-(tert-butoxy)-2-(7-(4-chlorophenyl)-2-(1-(2,2-difluoroethyl)-3-(1-(oxetan-3-yl)piperidin-4-yl)-1H-indazol-5-yl)-5-methylbenzo[d]thiazol-6-yl)acetic acid], for which the EC50 with HIV-IIIb IN T174I DE stood at 5710 nM; with HIV-IIIb (wildtype), 5040 nM; with HIV-IIIb IN T174I BT, 5710 nM.

As for `Cc1cc2nc(-c3cnc4c(c3)c(N3CCN(C)CC3)cn4C)sc2c(-c2ccc(Cl)cc2)c1[C@H](OC(C)(C)C)C(=O)O` [Compound 107, (S)-2-(tert-butoxy)-2-(7-(4-chlorophenyl)-5-methyl-2-(1-methyl-3-(4-methylpiperazin-1-yl)-1H-pyrrolo[2,3-b]pyridin-5-yl)benzo[d]thiazol-6-yl)acetic acid], the EC50 in the experiment on HIV-IIIb IN T174I DE is 2360 nM; in the experiment with HIV-IIIb (wildtype), 23 nM; with HIV-IIIb IN T174I BT, 1110 nM.

On to `Cc1cc2nc(-c3ccc4c(c3)c(C3CN(C(=O)OC(C)(C)C)C3)nn4C)sc2c(-c2ccc(Cl)cc2)c1[C@H](OC(C)(C)C)C(=O)O` [Compound 53, (S)-2-(tert-butoxy)-2-(2-(3-(1-(tert-butoxycarbonyl)azetidin-3-yl)-1-methyl-1H-indazol-5-yl)-7-(4-chlorophenyl)-5-methylbenzo[d]thiazol-6-yl)acetic acid], for which the half-maximal effective concentration (EC50) with HIV-IIIb IN T174I DE turned out to be 57000 nM; in the experiment with HIV-IIIb (wildtype), 45 nM; in the experiment with HIV-IIIb IN T174I BT it was 8910 nM.

Turning to `CCn1nc(C2CCN(C3CN(C(=O)OC)C3)CC2)c2nc(-c3nc4cc(C)c([C@H](OC(C)(C)C)C(=O)O)c(-c5ccc(Cl)cc5)c4s3)ccc21` [Compound 179, (S)-2-(tert-butoxy)-2-(7-(4-chloro-phenyl)-2-(1-ethyl-3-(1-(1-(methoxy-carbonyl)azetidin-3-yl)piperidin-4-yl)-1H-pyrazolo [4,3-b]pyridin-5-yl)-5-methylbenzo [d]thiazol-6-yl) acetic acid], the results for the EC50 in the experiment with HIV-IIIb IN T174I DE, in the experiment with HIV-IIIb (wildtype) and in the experiment on HIV-IIIb IN T174I BT were 108 nM, 3 nM and 28 nM, respectively.

As to `Cc1cc2nc(-c3ccc4c(c3)c(C3CN(C(C)C)C3)nn4C)sc2c(-c2ccc(Cl)cc2)c1[C@H](OC(C)(C)C)C(=O)O` [Compound 54, (S)-2-(tert-butoxy)-2-(7-(4-chlorophenyl)-2-(3-(1-isopropylazetidin-3-yl)-1-methyl-1H-indazol-5-yl)-5-methylbenzo[d]thiazol-6-yl)acetic acid], the results for the EC50 in the experiment with HIV-IIIb IN T174I DE, in the experiment on HIV-IIIb (wildtype) and in the experiment with HIV-IIIb IN T174I BT were 3290 nM, 6 nM and 1830 nM, respectively.

`Cc1cc2nc(-c3ccc4c(c3)c(C3CCN(C5COC5)CC3)nn4C(F)F)sc2c(-c2ccc(Cl)cc2)c1[C@H](OC(C)(C)C)C(=O)O` [Compound 39, (S)-2-(tert-butoxy)-2-(7-(4-chlorophenyl)-2-(1-(difluoromethyl)-3-(1-(oxetan-3-yl)piperidin-4-yl)-1H-indazol-5-yl)-5-methylbenzo[d]thiazol-6-yl)acetic acid]: the EC50 in the experiment on HIV-IIIb IN T174I DE is 1150 nM; in the experiment on HIV-IIIb (wildtype) it was 13 nM; in the experiment with HIV-IIIb IN T174I BT, 651 nM.

Consider `CCOC(=O)N1CC(N2CCC(c3nn(C)c4ncc(-c5nc6cc(C)c([C@H](OC(C)(C)C)C(=O)O)c(-c7ccc(Cl)cc7)c6s5)cc34)CC2)C1` [Compound 115, (S)-2-(tert-butoxy)-2-(7-(4-chlorophenyl)-2-(3-(1-(1-(ethoxycarbonyl)azetidin-3-yl)piperidin-4-yl)-1-methyl-1H-pyrazolo[3,4-b]pyridin-5-yl)-5-methylbenzo[d]thiazol-6-yl)acetic acid], for which the values for the EC50 in the experiment on HIV-IIIb IN T174I DE, in the experiment on HIV-IIIb (wildtype) and in the experiment with HIV-IIIb IN T174I BT were 2450 nM, 14 nM and 1600 nM, respectively.

With `Cc1cc2nc(-c3ccc4c(c3)c(C3CCN(C(=O)C5(C)CCCO5)CC3)nn4C)sc2c(-c2ccc(Cl)cc2)c1[C@H](OC(C)(C)C)C(=O)O` (stereo partly drawn) [Compound 158, (2S)-2-(tert-butoxy)-2-(7-(4-chloro-phenyl)-5-methyl-2-(1-methyl-3-(1-(2-methyltetrahydro-furan-2-carbonyl)piperidin-4-yl)-1H-indazol-5-yl)benzo [d]thiazol-6-yl) acetic acid], the EC50 with HIV-IIIb IN T174I DE is 1670 nM; in the experiment on HIV-IIIb (wildtype), 11 nM; with HIV-IIIb IN T174I BT it was 1300 nM.

Take `Cc1cc2nc(-c3ccc4c(c3)c(C3CCN(C)C3)nn4C)sc2c(-c2ccc(Cl)cc2)c1[C@H](OC(C)(C)C)C(=O)O` (stereo partly drawn) [Compound 63, (2S)-2-(tert-butoxy)-2-(7-(4-chlorophenyl)-5-methyl-2-(1-methyl-3-(1-methylpyrrolidin-3-yl)-1H-indazol-5-yl)benzo[d]thiazol-6-yl)acetic acid]: the EC50 with HIV-IIIb IN T174I DE amounted to 13200 nM; with HIV-IIIb (wildtype), 10 nM; in the experiment on HIV-IIIb IN T174I BT, 2800 nM.

For `Cc1cc2nc(-c3ccc4c(c3)c(C3CCN(C5CN(C(=O)OC(C)(C)C)C5)CC3)nn4C)sc2c(-c2ccc(Cl)cc2)c1[C@H](OC(C)(C)C)C(=O)O` [Compound 28, (S)-2-(tert-butoxy)-2-(2-(3-(1-(1-(tert-butoxycarbonyl)azetidin-3-yl)piperidin-4-yl)-1-methyl-1H-indazol-5-yl)-7-(4-chlorophenyl)-5-methylbenzo[d]thiazol-6-yl)acetic Acid], the EC50 in the experiment with HIV-IIIb IN T174I DE was 2260 nM; with HIV-IIIb (wildtype), 73 nM; with HIV-IIIb IN T174I BT, 1800 nM.

Consider `Cc1cc2nc(-c3ccc4c(c3)c(C3CCN(C(=O)[C@@H]5CCCO5)CC3)nn4C)sc2c(-c2ccc(Cl)cc2)c1[C@H](OC(C)(C)C)C(=O)O` [Compound 157, (S)-2-(tert-butoxy)-2-(7-(4-chloro-phenyl)-5-methyl-2-(1-methyl-3-(1-((S)-tetrahydrofuran-2-carbonyl)piperidin-4-yl)-1H-indazol-5-yl)benzo[d]thiazol-6-yl)acetic acid], for which the concentration giving a half-maximal response (EC50) is 789 nM with HIV-IIIb IN T174I DE, 11 nM with HIV-IIIb (wildtype) and 620 nM with HIV-IIIb IN T174I BT.

Take `COCCN1CCC(c2nn(C)c3ccc(-c4nc5cc(C)c([C@H](OC(C)(C)C)C(=O)O)c(-c6ccc(Cl)cc6)c5s4)cc23)C1` (stereo partly drawn) [Compound 65, (2S)-2-(tert-butoxy)-2-(7-(4-chlorophenyl)-2-(3-(1-(2-methoxyethyl)pyrrolidin-3-yl)-1-methyl-1H-indazol-5-yl)-5-methylbenzo[d]thiazol-6-yl)acetic acid]: the EC50 with HIV-IIIb IN T174I DE stood at 2120 nM; with HIV-IIIb (wildtype) it was 4 nM; in the experiment with HIV-IIIb IN T174I BT, 752 nM.

With `Cc1cc2nc(-c3ccc4c(c3)c(N3CC5(CCCCC5)C3)nn4C)sc2c(-c2ccc(Cl)cc2)c1[C@H](OC(C)(C)C)C(=O)O` [Compound 97, (S)-2-(tert-butoxy)-2-(7-(4-chlorophenyl)-5-methyl-2-(1-methyl-3-(2-azaspiro[3.5]nonan-2-yl)-1H-indazol-5-yl)benzo[d]thiazol-6-yl)acetic acid], the concentration giving a half-maximal response (EC50) in the experiment on HIV-IIIb IN T174I DE stood at 9190 nM; in the experiment with HIV-IIIb (wildtype) it was 150 nM; in the experiment with HIV-IIIb IN T174I BT, 6810 nM.

For `CC(=O)N1CC(N2CCC(c3nn(C)c4ncc(-c5nc6cc(C)c([C@H](OC(C)(C)C)C(=O)O)c(-c7ccc(Cl)cc7)c6s5)cc34)CC2)C1` [Compound 117, (S)-2-(2-(3-(1-(1-acetylazetidin-3-yl)piperidin-4-yl)-1-methyl-1H-pyrazolo[3,4-b]pyridin-5-yl)-7-(4-chlorophenyl)-5-methylbenzo[d]thiazol-6-yl)-2-(tert-butoxy)acetic acid], the EC50 in the experiment on HIV-IIIb IN T174I DE was found to be 1690 nM; in the experiment with HIV-IIIb (wildtype), 27 nM; in the experiment with HIV-IIIb IN T174I BT it was 1180 nM.

Take `CC(=O)N1CC(N2CCC(c3c4nc(-c5nc6cc(C)c([C@H](OC(C)(C)C)C(=O)O)c(-c7ccc(Cl)cc7)c6s5)ccc4nn3C(F)F)CC2)C1` [Compound 189, (S)-2-(2-(3-(1-(1-acetylazetidin-3-yl)piperidin-4-yl)-2-(difluoromethyl)-2H-pyrazolo [4,3-b]pyridin-5-yl)-7-(4-chloro-phenyl)-5-methylbenzo[d]thiazol-6-yl)-2-(tert-butoxy) acetic acid]: the EC50 in the experiment with HIV-IIIb IN T174I DE was 1400 nM; with HIV-IIIb (wildtype), 12 nM; in the experiment with HIV-IIIb IN T174I BT, 1020 nM.

In the case of `COCCN1CC[C@H](c2nn(C)c3ccc(-c4nc5cc(C)c([C@H](OC(C)(C)C)C(=O)O)c(-c6ccc(Cl)cc6)c5s4)cc23)C1` (single isomer, unassigned) [Compound 68], the EC50 in the experiment on HIV-IIIb IN T174I DE was found to be 1600 nM; in the experiment with HIV-IIIb (wildtype), 5 nM; in the experiment on HIV-IIIb IN T174I BT, 1160 nM.

Consider `Cc1cc2nc(-c3ccc4c(n3)c(C3CCN(C5CC5)CC3)nn4C)sc2c(-c2ccc(Cl)cc2)c1[C@H](OC(C)(C)C)C(=O)O` [Compound 187, (S)-2-(tert-butoxy)-2-(7-(4-chloro-phenyl)-2-(3-(1-cyclopropyl-piperidin-4-yl)-1-methyl-1H-pyrazolo[4,3-b]pyridin-5-yl)-5-methylbenzo[d]thiazol-6-yl) acetic acid], for which the EC50 was 844 nM with HIV-IIIb IN T174I DE, 4 nM with HIV-IIIb (wildtype) and 339 nM in the experiment with HIV-IIIb IN T174I BT.

Consider `COC(=O)N1CC(N2CCC(c3nn(C)c4ncc(-c5nc6cc(C)c([C@H](OC(C)(C)C)C(=O)O)c(-c7ccc(Cl)cc7)c6s5)nc34)CC2)C1` [Compound 119, (S)-2-(tert-butoxy)-2-(7-(4-chlorophenyl)-2-(3-(1-(1-(methoxycarbonyl)azetidin-3-yl)piperidin-4-yl)-1-methyl-1H-pyrazolo[3,4-b]pyrazin-5-yl)-5-methylbenzo[d]thiazol-6-yl)acetic acid], for which the results for the EC50 with HIV-IIIb IN T174I DE, with HIV-IIIb (wildtype) and in the experiment on HIV-IIIb IN T174I BT were 332 nM, 8 nM and 310 nM, respectively.

Source of the values: patent publication US10800772B2 (Gilead Sciences, Inc., priority 2016, dated 2020).
